In patent publication US12377069B2, “Compounds, compositions, methods of using, and methods for preparing compounds” (UNIVERSITY OF LOUISVILLE RESEARCH FOUNDATION, INC., priority 2018, dated 2025):

Tests used:
HT29 cells = assay: RNA-Seq analysis of HT29 cells; format: cell-based, human; settings: 50 μM, 24 h
Experimental: RNA sequencing: Total RNA was isolated from HT29 cells treated with vehicle and UroA (50 μM) (n=3) for 24 h and RNA was isolated using Trizol based lysis followed by Qiagen RNeasy kits. The isolated RNA was checked for integrity (RIN>9.5) using the Agilent Bioanalyzer 2100 system (Agilent Technologies, Santa Clara, CA) and quantified using a Qubit fluorometric assay (Thermo Fisher Scientific, Waltham, MA). Poly-A enriched […] libraries were prepared following Illumina's TruSeq Stranded mRNA LT library preparation protocol (Illumina Inc., San Diego, CA) using 1 μg of total RNA. All 15 samples were individually barcoded and quantitated with the KAPA Library Quantitation Kit for Illumina Platforms (Kapa Biosystems, Wilmington, MA) in conjunction with an Agilent Bioanalyzer DNA 1000 analysis (Agilent Technologies, Santa Clara, CA) for fragment size determination. The average fragment size was approximately 300 bp. […] of the pooled libraries with 1% PhiX spike-in was loaded on one NextSeq 500/550 75 cycle High Output Kit v2 sequencing flow cell and sequenced on the Illumina NextSeq 500 sequencer. The quality of the 1×75 bp sequences was checked using […] Quality Control Tool for High Throughput Sequence Data”). Trimming was not necessary with the median quality score above 30 (error probability=0.001 or 1 base call in 1,000 is predicted to be incorrect) across the entire length of the read and the lower quantile above a score of 20 (error probability=0.01) at the end of the read where there is an expected decrease in quality. The raw reads for each sample were directly aligned to the Homo sapiens (hg38) reference genome assembly (hg38.fa) using tophat2 (version 2.0.13) (KIM et al. (2013) “TopHat2: accurate alignment of transcriptomes in the presence of insertions, deletions and gene fusions” Genome biology, Vol. 14, Article […]), generating alignment files in bam format. Optional parameters include-no-coverage-search and -library-type fr-firststrand. […] On average, 26 million reads were aligned per sample with a mean alignment rate of 97 percent. […]

C57BL/6 mice = assay: Acute (binge) alcohol ALD model; format: in vivo, mouse
Experimental: FIG. 15: UroA treatment reduces binge EtOH-induced ALD. (A) Acute alcohol model: Female wild type (C547BL/6) mice (n=6/group) were oral gavaged with alcohol (5 g/kg) at 0, 12 and 24 h. Mice were treated with Veh (0.25% CMC) or UroA (20 mg/kg) at 2, 14 and 26 h. Mice were euthanized at 32 h. (B) In vivo permeability was measured by determining serum levels of FITC-Dextran post 4 h oral gavage of FITC-dextran (C) Fecal albumin was measured using standard ELISA. (D-I) Indicated serum cytokines/markers levels were measured in serum using standard ELISA. (J) The levels of triglycerides (TGs) in liver were measured using ELISA methods. Error bars, ±SEM. Statistics were performed using 2 way ANOVA multiple comparisons. * p<0.05, ** p<0.01, *** p<0.001.
Treatment with UroA mitigates acute and chronic alcohol liver disease. To examine therapeutic efficacies of UroA in ALD, we adopted acute mouse model as developed by Gao B group (NIAAA) (BERTOLA et al., (2013) “Mouse model of chronic and binge ethanol feeding (the NIAAA model)” Nat Protoc. Vol. 8, No. 3, pp. 627-637). We tested therapeutic efficacies of UroA in this model.

colon cancer cells = assay: Clonogenic and wound healing assays; format: cell-based
C57BL/6N mice = assay: Chronic ALD mouse model; format: in vivo; settings: 20 mg/kg orally every other day, 4 weeks
Experimental: FIG. 18: UAS03 mitigates chronic ALD. (A) C57BL/6 mice (10 wk old age) were used in chronic ALD models and analyzed after 4 weeks as described. Pair fed (n=5/group) and EtOH fed (n=10/group) mice were treated with Veh (0.25% CMC) and UAS03 (20 mg/kg) alternate day for 4 weeks. (B) Gross images of colons (C) colon lengths (D) In vivo permeability using FITC-Dextran was measured. (E) Serum ALT, AST, endotoxin, IL-6, TNF-α were measured using ELISA methods. (F) H&E sections (20×) of liver are shown. Scale bar is 100 μm. Fat droplets (white) are visible in EtOH group. (G) The levels of triglycerides (TGs), IL-6, TNF-α and myeloperoxidase (MPO) were measured in liver tissues. (H) Immunoblot of Ocln expression in ileum tissues (n=3) from mice fed with EtOH treated with Veh or UAS03. Error bars, ±SEM. Statistics were performed using 2way ANOVA multiple comparisons. * p<0.05, ** p<0.01, *** p<0.001.
Male C57BL/6N (10 week age old) were purchased from Jackson Laboratory and were acclimatized with pair fed liquid diet (Lieber DeCarli) for 1 week. After acclimatization, animals were fed with pair fed (n=5 mice/group) and alcohol diet (n=10 mice/group). Briefly, mice were fed with diet containing 17% of energy as protein, 40% as corn oil, 7.5% as carbohydrate, and 35.5% as either alcohol (5% v/w, alcohol-fed, AF) or isocaloric maltose dextrin (pair-fed, PF). Before mice went on to 5% alcohol diet, alcohol concentration was ramped from 1.6% (3 days) to 3.6% (3 days) and finally 5% for next 4 weeks. UAS03 group animals received UAS03 orally (20 mg/kg/day) on every other day after start of alcohol diet (FIG. 18A). We used 0.25% sodium carboxymethyl cellulose (CMC) as vehicle treatment. The mice were euthanized after 4 weeks and measured colon lengths (FIG. 18B-C), in vivo gut permeability (FITC-dextran assay), serum ALT, AST, endotoxin, IL-6 and TNF-α (FIG. 18E).

For `O=c1oc2cc(O)ccc2c2ccc(O)cc12` [UroA, 3,8-dihydroxy-6H-dibenzo[b,d]pyran-6-one], the “Cyp1A1 expression (RNA-Seq)” value (HT29 cells) was “among the top 3 UroA upregulated genes”, the “claudin 4 (Cldn4) expression (RNA-Seq)” value (HT29 cells) was “upregulated” and the “heme oxygenase 1 (HMOX1 or HO1) expression (RNA-Seq)” value (HT29 cells) was “increased the expression”. The “TJ protein (ZO-1) disruption at intestines” value (C57BL/6 mice; 20 mg/kg) was “protects against TJ protein (ZO-1) disruption”, the “TG accumulation in liver” value (C57BL/6 mice; 20 mg/kg at 2, 14 and 26 h) was “reduced TG accumulation in liver” and the “circulating serum ALT, AST levels” value (C57BL/6 mice; 20 mg/kg at 2, 14 and 26 h) was “reduced”. The “systemic inflammation (serum IL-6, TNF-α, IL-1β, endotoxins)” value (C57BL/6 mice; 20 mg/kg at 2, 14 and 26 h) was “reduced”, the “colon cancer cell colony formation (clonogenic assay)” value (colon cancer cells) was “reduced” and the “cell growth and migration into scratch (wound healing assay)” value (colon cancer cells; in combination with 5FU) was “inhibited cell growth and migration”.

For `Oc1ccc2c(c1)COc1cc(O)ccc1-2` [UAS03, 6H-benzo[c]chromene-3,8-diol], the “deterioration of Ocln in the gut” value (C57BL/6N mice) was “protected from deterioration of Ocln”, the “liver fat deposition (histopathology)” value (C57BL/6N mice) was “reduced liver fat deposition” and the “liver inflammation (IL-6, TNF-α, MPO) and TG levels” value (C57BL/6N mice) was “down regulated liver inflammation and TG levels”.
